Test results taken from PMC4109680, “Identification and Preclinical Pharmacology of the γ-Secretase Modulator BMS-869780” (International Journal of Alzheimer's Disease, 2014).

Tests used:
[1] = tested on: Aβ1-42 in cerebrospinal fluid; set-up: method as in PMID 18090435; conditions: clinical trials, even at high doses; cited from earlier work
brain Aβ1-42 = tested on: brain Aβ1-42; set-up: method as in PMID 12897211, PMID 17650315; conditions: rodents; cited from earlier work
rat brain Aβ = assay: Rat brain Aβ peptides after oral dose (4-plex immunoassay and Aβ1-x); format: in vivo; conditions: 10 mg/kg, 5 hours
Procedure: (§1) IC50 determinations for Aβ1-42 and Aβ1-40 in H4-APPsw cultures in 384-well format were determined using homogeneous time-resolved fluorescence immunoassays as previously described. The principle of these assays is illustrated in Figures 1(c) and 1(d). In other experiments using H4-APPsw cultures, Aβ was quantified by ELISA; for Aβ1-42 the combination of monoclonal antibodies was 26D6 and 565-HRP; for Aβ1-40 it was TSD and 26D6-HRP, and for Aβ1-x it was 4G8 and 26D6-HRP. In some experiments a novel 4-plex Aβ electrochemiluminescence immunoassay was used (Mesoscale Discovery catalog number N45ZA-1). Briefly, the 4-plex was carried out in 96-well format, with 4 separate spots of capture antibodies in each well. The 96-well plates were prepared by the manufacturer, with spots of monoclonal antibodies for Aβ1-42, Aβ1-40, and Aβ1-38, and an additional fourth spot of streptavidin in each well. Plates were initially incubated with blocking buffer (5% BSA in phosphate buffered saline, 200 μL per well) for 2 hours at ambient temperature and then with D2A6H-biotin conjugate (50 ng/mL in 1% BSA, phosphate buffered saline, 25 μL per well) for 1 hour. Plates were then rinsed with phosphate buffered saline before addition of experimental samples for determination of Aβ1-42, Aβ1-40, Aβ1-38, and Aβ1-37 levels, following the manufacturer's instructions as for the Aβ 3-plex kit (catalog number K15148E-1). Rat brain extracts for use in the 4-plex assay were made in 0.2% diethylamine, as previously described. For detection of rat Aβ peptides in the 4-plex (Figure 5), 252Q6-sulfo-tag conjugate was used, and for detection of human Aβ peptides from cell cultures 6E10-sulfo-tag conjugate was used. For Aβ in transiently transfected PS1/PS2 dKO fibroblasts, Aβ1-42 was quantified using an ELISA kit (WACO), and Aβ1-40 was quantified by ELISA as described above for H4-APPsw cultures. For triple transgenic mice (3xTg; [63]), human transgenic Aβ1-42 was assayed in brain homogenates using an ELISA kit (WACO). For the rat and mouse experiments illustrated in Figures 7 and 8, brain samples were prepared by solid phase extraction, and endogenous rat brain Aβ1-42 and Aβ1-40 were quantified by ELISA as previously described for wild type mice. For brain extracts made using solid phase extraction, calibration of Aβ was relative, based on the approximately linear response of the assay in the range tested. For brain extracts made in 0.2% diethylamine, Aβ1-42, Aβ1-40, Aβ1-38, and Aβ1-37 concentrations in brain and cell culture samples were determined by fitting the results of immunoassays against calibration curves derived from a range of dilutions of the corresponding synthetic peptides on each assay plate using a quadratic curve fit (Graphpad Prizm 5.0). Aβ1-x was calibrated in the same way against synthetic Aβ1-40 peptide. Results were expressed in units of pM, corrected for sample dilution.
Rats were given oral doses of BMS-869780, and levels of brain Aβ, βCTF, and αCTF were determined 24 hours later. For comparison, BMS-698861 was dosed in a separate experiment and samples were taken 5 hours later. […] (c) Rat brain βCTF was detected by western blotting of immunoprecipitates from samples of the same rat brains used for Aβ determinations. […] (e) and (f) quantification of western blots shown in (c) and (d), respectively, expressed relative to percent of average level of CTF in vehicle-treated rats. […]

[2] = tested on: rat brain APP-CTFβ and APP-CTFα; assay: Immunoprecipitation and western blot of APP-CTFβ and APP-CTFα from rat brain; format: in vivo; conditions: 10 mg/kg, 5 hours
Procedure: Rats were given oral doses of BMS-869780, and levels of brain Aβ, βCTF, and αCTF were determined 24 hours later. For comparison, BMS-698861 was dosed in a separate experiment and samples were taken 5 hours later. (a) Brain levels of Aβ1-42 (red), Aβ1-40 (green), Aβ1-38 (blue), and Aβ1-37 (purple) are shown as bars stacked upon one another. The total height of each bar therefore represents the sum of the four peptides. (b) Aβ1-42 (red—left Y axis) and Aβ1-x (grey—right Y axis). The same results for Aβ1-42 are plotted in both (a) and (b). (c) Rat brain βCTF was detected by western blotting of immunoprecipitates from samples of the same rat brains used for Aβ determinations. V, vehicle groups; results from rats dosed with 1.9, 22, 100, and 235 mg/kg of BMS-869780 and 10 mg/kg BMS-698861 (GSI) are indicated. (d) Western blots of immunoprecipitated αCTF from the same rat brain samples. (e) and (f) quantification of western blots shown in (c) and (d), respectively, expressed relative to percent of average level of CTF in vehicle-treated rats. Actual doses of BMS-869780 were determined by analysis of concentrations in left-over dosing solutions. […]

[3] = tested on: brain Aβ1-42, brain Aβ1-40, plasma Aβ1-40; assay: Rat intraperitoneal dose response, brain and plasma Aβ 5 hours after dosing; format: in vivo; conditions: 30 mg/kg, 5 hours
Procedure: as §1
Figure 7 BMS-869780 dose response and evaluation of residual Aβ levels in rat brain. (a) Groups of rats received intraperitoneal (IP) injections of vehicle or BMS-869780 at doses of 100, 30, 10, 3, 1, and 0.3 mg/kg. Additional rats were dosed with GSI BMS-698861 at 30 mg/kg as a positive control for Aβ-lowering. Group sizes were seven rats for each dose of BMS-869780 and 14 rats for vehicle and GSI dose groups. Brain and plasma were harvested 5 hours after dosing. Brain Aβ1-42 (green), brain Aβ1-40 (blue), brain Aβ1-x (black), and plasma Aβ1-40 (red) were determined. Values are expressed as % relative to vehicle group mean. Whiskers represent standard error. ⊗Aβ1-x was not determined in the groups dosed at 3, 1, and 0.3 mg/kg. (b) Brain Aβ1-40 was plotted against brain Aβ1-42 for each rat dosed with BMS-869780 (black ▼) and for each rat dosed with vehicle (grey ●). Values are expressed as % relative to vehicle group mean. Whiskers represent standard error. […]

Notch/Aβ1-40 = tested on: Notch/Aβ1-40; set-up: method as in PMID 24900185; conditions: cited from earlier work

CC(C(=O)O)c1ccc(-c2ccccc2)c(F)c1 (stereo not drawn) [flurbiprofen]
effect on Aβ1-42 in cerebrospinal fluid [1]: no effect on Aβ1-42 in cerebrospinal fluid
effect on brain Aβ1-42 (brain Aβ1-42): lower brain Aβ1-42 in rodents

NC(=O)[C@@H](CC1CC1)N(Cc1ccc(-c2ncon2)cc1F)S(=O)(=O)c1ccc(Cl)cc1 [BMS-698861, reference compound]
rat brain Aβ1-40, Aβ1-42, Aβ1-38, Aβ1-37 and Aβ1-x (rat brain Aβ): decreased levels of all the peptides
rat brain APP-CTFβ and APP-CTFα levels [2]: increased several-fold
Aβ lowering in all Aβ assays including Aβ1-x [3]: robust lowering in all Aβ assays

NC(=O)[C@@H](CCC(F)(F)F)N(Cc1ccc(-c2ncon2)cc1F)S(=O)(=O)c1ccc(Cl)cc1 [avagacestat]
Notch/Aβ1-40 IC50 ratio (Notch/Aβ1-40): 193
